Columns and labels:
[1] = target: T1, purified wild type MGL (wt-MGLL 6H-11-313) (Homo sapiens, UniProt Q99685); experiment: MGL enzyme activity assay (4MU-B cleavage), wild type MGL; type: biochemical; conditions: 10 μM 4MU-B, 5 nM enzyme, 37° C., read-out: MGL wild type inh IC50
T1 construct: purified wild type MGL (wt-MGLL 6H-11-313)
T1 sequence (Q99685 1-303): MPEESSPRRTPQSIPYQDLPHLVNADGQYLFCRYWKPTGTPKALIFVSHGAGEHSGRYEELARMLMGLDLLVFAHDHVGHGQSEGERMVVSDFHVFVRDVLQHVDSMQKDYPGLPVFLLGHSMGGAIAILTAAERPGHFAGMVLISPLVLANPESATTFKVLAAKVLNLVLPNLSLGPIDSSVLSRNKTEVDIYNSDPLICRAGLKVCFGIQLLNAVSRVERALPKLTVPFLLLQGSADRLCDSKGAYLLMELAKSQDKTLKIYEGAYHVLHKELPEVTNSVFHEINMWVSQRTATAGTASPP
How it was run: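 Enzyme (5 nM final) cleaved 4MU-B (10 μM final) in 20 mM PIPES pH 7.0 with 150 mM NaCl and 0.001% Tween 20. Compounds were tested at 17 to 0.0003 μM final. Fluorescence (ex 335/em 440 nm) was monitored at 37° C for 5 min, and IC50 was fitted from fractional activity versus inhibitor concentration.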

[2] = test system: CFA-induced paw radiant heat hypersensitivity; experiment: CFA-induced paw radiant heat hypersensitivity; type: in vivo; conditions: rat; 30 mg/kg, p.o.; last time point 300 min; group mean values, maximum % reversal at any time point
Description: Each rat was placed in a test chamber on a warm glass surface and allowed to acclimate for approximately 10 min. A radiant thermal stimulus (beam of light) was focused through the glass onto the plantar surface of each hind paw in turn. The thermal stimulus was automatically shut off by a photoelectric relay when the paw was moved or when the cut-off time was reached (20 sec for radiant heat at ˜5 amps). An initial (baseline) response latency to the thermal stimulus was recorded for each animal prior to the injection of complete Freund's adjuvant (CFA). Twenty-four hours following intraplantar CFA injection, the response latency of the animal to the thermal stimulus was re-evaluated and compared to the animal's baseline response time. […] Post-compound treatment withdrawal latency was assessed at fixed time intervals, typically 30, 60, 120, 180, and 300 min.
The percent reversal (% R) of hypersensitivity was calculated in one of two different ways: 1) using group mean values or 2) using individual animal values. […]
Method 1. For all compounds, the % R of hypersensitivity was calculated using the mean value for groups of animals at each time point according to the following formula: % reversal=[(group treatment response−group CFA response)/(group baseline response−group CFA response)]×100 Results are given for the maximum % reversal observed for each compound at any time point tested. […]

Row | IC50 [1] [nM] | SMILES | Method 1: peak % reversal [2] [%]
1 | 6 | O=C(c1nccs1)N1CCC(C2CN(C(=O)c3sc4cc(C(F)(F)F)ccc4c3Cl)C2)CC1 [Cpd 29, 4-(1-{[3-Chloro-6-(trifluoromethyl)-1-benzothiophen-2-yl]carbonyl}azetidin-3-yl)-1-(1,3-thiazol-2-ylcarbonyl)piperidine] | 17.9
2 | < 5 | Cc1c(C(=O)N2CC(C3CCN(C(=O)c4nccs4)CC3)C2)sc2cc(C(F)(F)F)ccc12 [Cpd 20, 4-(1-{[3-Methyl-6-(trifluoromethyl)-1-benzothiophen-2-yl]carbonyl}azetidin-3-yl)-1-(1,3-thiazol-2-ylcarbonyl)piperidine] | −6.7

— patent US8513423B2 (Janssen Pharmaceutica, NV, priority 2010, dated 2013)
